Assay results: patent publication US20140162966A1, “NANOPARTICLES FOR DELIVERY OF LIGANDS” (The U.S.A, as represented by the Secretary, Department of …, priority 2012, published 2014)

Tests used:
[1] = test system: 4T1-fluc cells; assay: cellular uptake of Cy3-labeled siRNA; assay type: cell-based
Procedure: CD44 expression was confirmed by flow cytometry. The red fluoresecence from Cy3-labeled siRNA was more intense in 4T1-fluc cells that were treated with siRNA/HADPA-Zn-NPs than in the cells that were treated with Lipofectamine 2000 (Lipo2K)/siRNA. […] Furthermore, the uptake of siRNA/HADPA-Zn-NPs into 4T1-fluc cells was 3.7±0.5-fold higher than the uptake into 293T cells.

[2] = test system: subcutaneous 4T1-fluc tumors; assay: in vivo gene silencing in 4T1-fluc xenograft mouse model (in vivo BLI); design: species or system Balb/C mice; conditions: 72 hours after intratumor injection; siLuc 100 pmol and/or NPs 200 ug in 80 uL
Procedure: Four groups of Balb/C mice (n=5 per group) with subcutaneous 4T1-fluc tumors were treated with an intratumor injection of 80 uL of a buffer solution that contained siLuc/HADPA-Zn-NPs (100 pmol/200 ug), HADPA-Zn-NPs (200 ug), naked siLuc (100 pmol), or phosphate-buffered saline (PBS). The silencing of the fluc gene was measured by in vivo BLI. […] In contrast the control groups had increased levels of fluc expression ((30.0±4.1) %, (38.2±3.9)%, and (39.2±5.3)%, for HADPA-Zn-NPs, naked siRNA, and PBS, respectively, FIG. 8). The tumors from each group were harvested and weighed after BLI to determine whether the apparent gene silencing effect was a result of a reduction in the volume of the tumors as a consequence of the toxicity of the formulation. As shown by the […] testing, there was no significant difference in the neoplastic weights of the tumors between the various groups.

Row | Substance | fluorescence observed in treated cells [1] | relative level of fluc expression [2]
1 | Zn-dipicolylamine [Zn-DPA] | no fluorescence was observed | 
2 | naked siRNA: siRNA that targets the firefly luciferase gene, SEQUENCE ID NO. 1 and 2, without carrier (chain 1 GCACUCUGAUUGACAAAUACGAUUU; chain 2 AAAUCGUAUUUGUCAAUCAGAGUGC; listed as RNA, chemistry not given here) |  | 38.2±3.9%
